From article PMC6588697, “Lugdunin amplifies innate immune responses in the skin in synergy with host- and microbiota-derived factors” (Nature Communications, 2019) come the findings set out here.

One assay concerns S. epidermidis. As to the kind of experiment: Antimicrobial testing (CFU) against S. epidermidis. The class given is cell-based, Staphylococcus epidermidis. Particulars: 3 h, mean. As to the method:
(§1) For bactericidal testing, logarithmically growing staphylococci were resuspended in PBS (Sigma) containing 0.1% TSB (Carl Roth) and colony-forming unit (CFU) was adjusted to 3 × 10^6 CFU/mL. Different concentrations of single peptides and their combinations were diluted in PBS containing 0.1% TSB and incubated with bacteria in triplicates for 3 h at 37 °C and 150 rpm orbital shaking. Subsequently, serial dilutions (10^–1–10^–4) of the bacterial suspensions were prepared in PBS and 20 µL of each dilution was spotted in duplicates onto TSB plates and incubated at 37 °C overnight. The next day, the number of CFU was analyzed and the percentage of viable bacteria was determined by normalizing to the untreated control (100%). Results are illustrated in a S. aureus killing curve. In each experiment, negative control replicates (PBS + 0.1% TSB) as well as sterility control replicates were included.
(§2) Supplementary Figure 7: Efficiency of Lugdunin and DCD -1(L) combinations in 107 […]
(§3) logarithmically grown bacteria were incubated with indicated combinations of 109 lugdunin and DCD-1(L) in PBS containing 0.1% TSB at 37 °C orbital shaking. After 3 110 hours of incubation several dilutions of the bacterial suspensions were plated onto TSB 111 agar pl ates and incubated over night at 37 °C. The next day bacterial CFU were 112 counted. Each experiment was performed in triplicates. Data represent the mean 113 percentage of CFU normalized to the untreated control. Data represent the mean of at 114 least three independent experiments. 115
(§4) (1 picture or pasted object on this page, not shown here)

Another assay concerns E. coli. As to the kind of experiment: Antimicrobial testing (CFU) against E. coli. The class given is cell-based, Escherichia coli. Particulars: 3 h, mean.
The next assay has as its system P. mirabilis. As to the kind of experiment: Antimicrobial testing (CFU) against P. mirabilis. The class given is cell-based, Proteus mirabilis. Conditions: 3 h, mean. As to the method:
as §1, §2, §3, §4

The subject of the next assay is PHKs. Kind of assay: Cytokine release into PHK supernatant (LEGENDplex / ELISA). The class given is cell-based, human. Particulars: 5 h, lugdunin 2 µM or Pam2Cys 100 ng/mL, two technical replicates. Here is the method: Fig. 1 Lugdunin sensitizes epithelial cells for innate immune defense. a Primary human keratinocytes (PHKs) were pretreated with S. epidermidis conditioned medium (CM), indicated lugdunin concentrations, or the combination of both for 20 h. Subsequently, cells were infected with S. aureus for 1.5 h followed by cell lysis and determination of colony-forming units (CFUs). Shown is one representative experiment of three independent experiments with six technical replicates ± s.e.m. n.s., not significant. b Dorsal skin of mice was pretreated with S. epidermidis CM, 1.5 µg lugdunin alone or in combination with S. epidermidis CM for 24 h. Subsequently, S. aureus CFUs were determined. Horizontal lines represent the mean of each group ± s.e.m. c PHKs were treated with 2 μM lugdunin or with S. epidermidis CM alone or in combination for 20 h and subsequently expression of indicated antimicrobial peptides (AMPs) (respective protein names in brackets) was analyzed and normalized to actin. Shown is one representative experiment of three independent experiments with two technical replicates ± s.e.m. d PHKs were treated with 2 µM lugdunin or 100 ng/mL Pam2Cys for 5 h and subsequently the concentration of indicated cytokines in the supernatant was analyzed by LEGENDplex^TM (BioLegend). Shown is one representative experiment of three independent experiments with two technical replicates ± s.e.m. e PHKs were treated with increasing concentrations of lugdunin or 100 ng/mL Pam2Cys or Pam3Cys for 5 h and subsequently expression of chemokine (C-X-C motif) ligand 8 (CXCL8) was analyzed and normalized to actin. Shown is one representative experiment of three independent experiments, each with two technical replicates ± s.e.m. f, g Indicated cells were treated with 2 µM lugdunin or 100 ng/mL Pam2Cys as a positive control for 5 h and subsequently the concentration of CXCL8 (f) and interleukin-1α (IL-1α) (g) in the supernatant was analyzed by LEGENDplex^TM (BioLegend) and enzyme-linked immunosorbent assay (ELISA) (R&D Systems). Shown is one representative experiment of three independent experiments with two technical replicates ± s.e.m. Significant differences to control treatments were analyzed by ordinary one-way analysis of variance (ANOVA) followed by Dunnett’s multiple comparisons test (*P < 0.05; **P < 0.01; ***P < 0.001; ****P < 0.0001). n.d. = not detected. Source data are provided as a Source Data file
For cytokine analysis from cell cultures, 10 µL of supernatant was used for cytokine analysis via the LEGENDplex^TM human inflammation panel (BioLegend). For cytokine analysis from mouse skin, 4 mm skin punches were cultured in an airlift system where only the dermis had access to medium for 10 h. Skin punches were cultured in RPMI containing 1% FCS (Biochrom/Merck Millipore), 1% penicillin and streptomycin (Gibco/Life Technologies) and 0.25 µg/mL amphotericin B (CELLnTEC). Ten microliters of a 3-fold dilution of culture supernatant was used for cytokine analysis via the LEGENDplex^TM mouse inflammation panel (BioLegend). Samples were acquired in duplicates using a BD LSRII flow cytometer (BD Biosciences) and LEGENDplex^TM Software (BioLegend).
For IL-1α analysis, 100 µL of cell culture supernatant was analyzed via ELISA (R&D Systems) according to manufacturer’s instruction. For MIP-2 analysis, 100 µL of a 5-fold dilution from skin cultures supernatant was used and analyzed via ELISA (R&D Systems) according to the manufacturer’s instruction. For LL-37 ELISA, ELISA plates (Nunc) were coated overnight at 4 °C with 100 µL of cell culture supernatant or 2-fold dilutions of LL-37 starting from 8 µg/mL. The next day, the plate was washed three times using PBS + 0.5% BSA + 0.05% Triton X-100, followed by incubation with 100 µL primary antibody against hCAP18/LL-37 (HycultBiotech, Cat#HM2071, 1:120 in PBS + 0.5% BSA + 0.05% Triton X-100) at 37 °C for 1 h. […]
(In general: ELISA stands for enzyme-linked immunosorbent assay.)

The test system of another assay is B. subtilis. As to the kind of experiment: Antimicrobial testing (CFU) against B. subtilis. It is filed as cell-based, Bacillus subtilis. Particulars: for B. subtilis CFU normalized to untreated control (1,00): 3 h, mean. As to the method: as §1, §2, §3, §4

Where “and” joins values, the source holds several entries; their conditions need not be identical. Identical values can stand only once.

Regarding Lugdunin, the “S. epidermidis CFU normalized to untreated control (1,00)” value (“S. epidermidis CFU normalized” below) with S. epidermidis (single peptide 1 µM) is given as 1,08. Besides, in the assay on S. epidermidis (single peptide 2 µM), the “S. epidermidis CFU normalized” value was 0,86. Further, the “S. epidermidis CFU normalized” value with S. epidermidis (single peptide 3 µM) is on record as 1,20. Further, in the assay with E. coli (single peptide 1 µM), the “E. coli CFU normalized to untreated control (1,00)” value (shortened to “E. coli CFU normalized”) is 1,05. The “E. coli CFU normalized” value in the assay on E. coli (single peptide 2 µM) is recorded as 1,34. The “E. coli CFU normalized” value with E. coli (single peptide 3 µM) is listed as 1,27. In the assay with P. mirabilis (single peptide 1 µM), the “P. mirabilis CFU normalized to untreated control (1,00)” value (from here on “P. mirabilis CFU normalized”) was 1,13. In addition, the “P. mirabilis CFU normalized” value with P. mirabilis (single peptide 2 µM) is listed as 0,84. Further, the “P. mirabilis CFU normalized” value in the assay with P. mirabilis (single peptide 3 µM) is listed as 0,98. Moreover, in the assay on PHKs (LEGENDplex, Fig 1d), the “CXCL8 concentration in supernatant” value was 62.009 and 63.022. Besides, in the assay with PHKs (Fig 1f), the “CXCL8 concentration in supernatant” value is 186.026 and 189.663. Moreover, in the assay on PHKs (Fig 1d), the “IFN concentration in supernatant (first line IFN, r44)” value was 0.000; the “IFN concentration in supernatant (second line IFN, r45)” value is on record as 0.000; the “IL-1 concentration in supernatant (first line IL-1, r43)” value came to 0.000; the “IL-1 concentration in supernatant (second line IL-1, r47)” value came out at 0.000. In the assay with PHKs (Fig 1d), the “IL-6 concentration in supernatant” value worked out at 0.000, the “IL-10 concentration in supernatant” value worked out at 0.000, the “IL-12p70 concentration in supernatant” value came out at 0.000 and the “IL-18 concentration in supernatant” value worked out at 0.000. In the assay with PHKs (Fig 1d), the “IL-23 concentration in supernatant” value was determined as 0.000; the “IL-33 concentration in supernatant” value is given as 0.000; the “MCP-1 concentration in supernatant” value was 219.647 and 222.665; the “TNF concentration in supernatant” value is 0.000. For the same substance, the “B. subtilis CFU normalized to untreated control (1,00)” value (from here on “B. subtilis CFU normalized”) with B. subtilis (single peptide 1 µM) is 0,81. In addition, the “B. subtilis CFU normalized” value in the assay on B. subtilis (single peptide 2 µM) was 0,60. In addition, in the assay on B. subtilis (single peptide 3 µM), the “B. subtilis CFU normalized” value is 0,44. Further, the “susceptibility of B. subtilis (in words)” value in the assay with B. subtilis (text to Supp Fig 7) was “susceptible”.
With “SSLLEKGLDGAKKAVGGLGKLGKDAVEDLESVGKGAVHDVKDVLDSV [DCD-1, dermcidin-derived human AMP of eccrine sweat glands]”, the “S. epidermidis CFU normalized” value with S. epidermidis (single peptide 1 µM) is reported as 1,51; in the assay with S. epidermidis (single peptide 2 µM) it was 0,94. Moreover, the “E. coli CFU normalized” value in the assay with E. coli (single peptide 1 µM) is listed as 1,31; in the assay on E. coli (single peptide 2 µM), 1,87. The “P. mirabilis CFU normalized” value in the assay with P. mirabilis (single peptide 1 µM) was 1,05; in the assay on P. mirabilis (single peptide 2 µM) it was 0,98. In addition, the “B. subtilis CFU normalized” value in the assay on B. subtilis (single peptide 1 µM) is reported as 1,14; in the assay with B. subtilis (single peptide 2 µM), 1,04.
For the substance “SSLLEKGLDGAKKAVGGLGKLGKDAVEDLESVGKGAVHDVKDVLDSVL [DCD-1L, dermcidin-derived human AMP of eccrine sweat glands]”, the “S. epidermidis CFU normalized” value in the assay on S. epidermidis (single peptide 1 µM) is recorded as 1,43; in the assay with S. epidermidis (single peptide 2 µM) it was 1,33. For the same substance, the “E. coli CFU normalized” value is listed as 1,26 with E. coli (single peptide 1 µM) and 1,92 with E. coli (single peptide 2 µM). For the same substance, the “P. mirabilis CFU normalized” value is on record as 0,95 with P. mirabilis (single peptide 1 µM) and 1,10 with P. mirabilis (single peptide 2 µM). Further, the figures for the “B. subtilis CFU normalized” value with B. subtilis (single peptide 1 µM) and in the assay with B. subtilis (single peptide 2 µM) were 0,96 and 0,63, respectively.
